How the values were obtained:
[1] = tested on: MES SA/Dx cells (doxorubicin-resistant uterine sarcoma line, MDR1 upregulated); assay: In vitro cell killing by calicheamicin and linker-drug constructs (CellTiter-Glo, 72 hours); assay type: cell-based
Procedure: (§1) 293 T cells were used along with MES SA and MES SA/Dx cells which comprise uterine sarcoma lines purchased from ATCC. The MES SA/Dx cell line was generated from MES SA cells cultured with increasing amounts of doxorubicin resulting in 100-fold resistance to doxorubicin and upregulation of MDR1.
(§2) The cells were cultured in a T75 flask to ˜50-80% confluency and harvested with trypsin into a single cell suspension. Five hundred (500) cells per well were seeded in tissue culture plates in 50 μL/well culture media and incubated at 37° C. for 18-24 hours. Compounds were diluted as 400× final desired concentrations in DMSO. Serial dilutions in DMSO were then diluted in culture media for a final DMSO concentration of 0.25% and 50 μL/well of the final dilution was added to the cells (Vf=100 μL). Upon plating and treatment, cells were returned to the incubator for an additional 72 hours. CellTiter-Glo reagent was prepared per manufacturer's instructions and added at 100 μL/well to the cultures. CellTiter-Glo allows for relative enumeration of metabolically active cells by quantifying intracellular ATP concentrations. After 5 minutes of incubation with CellTiter-Glo at ambient room temperature, 125 μL/well of the Cell Titer Glo/cell lysate solution was transferred into black assay plates, which were then read in a luminometer within 30 minutes.

293 T cells = assay: as above; assay type: cell-based
Procedure: as §1, §2

[2] = tested on: MES SA cells (uterine sarcoma line); assay: as above; assay type: cell-based; conditions: for IC50: MES SA
Procedure: as §1, §2

Cathepsin B = Cathepsin B (Homo sapiens, UniProt P07858); assay: Cathepsin B cleavage assay of dipeptide linker-drug constructs; assay type: biochemical; conditions: NAC-quenched linker-drug, 2.5, 5 or 10 mol % enzyme, pH 6.0, room temperature, 15-90 min
Procedure: Initially linker drug constructs from Examples 3 and 4 were treated with IM N-acetyl cysteine solution to quench maleimide functionality prior to the cathepsin B treatment. Excess of N-acetyl cysteine is used to activate the Cathepsin B.
More specifically quenched linker-drugs in 1:1 acetonitrile:water solution (20 ul) were diluted with 20 mM HisC1 pH 6.0 to a final acetonitrile content of 10% v/v ([…]). Cathepsin B enzyme was added to result in 2.5 mol %, 5 mol % or 10 mol % enzyme relative to the linker-drug. Reactions were vortexed gently and kept at room temperature. At the time points of 15, 30, 60 and 90 min 3 ul of the reaction mixture were placed into the total recovery vial containing 5 uL Tris pH 9, 2 uL 100 mM […] (DHAA), 15 ul water. The samples were analyzed using Analytical Method B set forth above. Conversion was calculated based on the decrease of the starting material peak area.

[3] = LINKER DRUG IVK (1000 nM start, 10X dilutions)
[4] = SMALL MOLECULE IVK (10 nM start, 5X dilutions)
[5] = SMALL MOLECULE IVK (10 nM start, 5X dilutions), listed as N acetyl calicheamicin (lot B)

Compound: CCN(C(C)=O)[C@H]1CO[C@@H](O[C@H]2[C@H](O[C@H]3C#C/C=C\C#C[C@]4(O)CC(=O)C(NC(=O)OC)=C3/C4=C\CSSC(C)(C)CCC(=O)NCCNC(=O)OCc3ccc(NC(=O)[C@H](CCCNC(N)=O)NC(=O)[C@@H](NC(=O)CCCCCN4C(=O)C=CC4=O)C(C)C)cc3)O[C@H](C)[C@@H](NO[C@H]3C[C@H](O)[C@H](SC(=O)c4c(C)c(I)c(O[C@@H]5O[C@@H](C)[C@H](O)[C@@H](OC)[C@H]5O)c(OC)c4OC)[C@@H](C)O3)[C@H]2O)C[C@@H]1OC [Val-Cit calicheamicin]
- IC50 [1, 3]: > 1000 nM
- IC50 (293 T cells; [3]): 46 nM
- IC50 [2, 3]: 6.3 nM
- cleavage by Cathepsin B (Cathepsin B): effectively cleaved
- rate of cleavage by Cathepsin B, compared between constructs (Cathepsin B): cleaved more rapidly than the Val-Ala dipeptidyl construct

Compound: CCN(C(C)=O)[C@H]1CO[C@@H](O[C@H]2[C@H](O[C@H]3C#C/C=C\C#C[C@]4(O)CC(=O)C(NC(=O)OC)=C3/C4=C\CSSC(C)(C)CCC(=O)NCCNC(=O)OCc3ccc(NC(=O)[C@H](C)NC(=O)[C@@H](NC(=O)CCCCCN4C(=O)C=CC4=O)C(C)C)cc3)O[C@H](C)[C@@H](NO[C@H]3C[C@H](O)[C@H](SC(=O)c4c(C)c(I)c(O[C@@H]5O[C@@H](C)[C@H](O)[C@@H](OC)[C@H]5O)c(OC)c4OC)[C@@H](C)O3)[C@H]2O)C[C@@H]1OC [Val-Ala calicheamicin]
- cleavage by Cathepsin B (Cathepsin B): effectively cleaved

Compound: CCN(C(C)=O)[C@H]1CO[C@@H](O[C@H]2[C@H](O[C@H]3C#C/C=C\C#C[C@]4(O)CC(=O)C(NC(=O)OC)=C3/C4=C\CSSSC)O[C@H](C)[C@@H](NO[C@H]3C[C@H](O)[C@H](SC(=O)c4c(C)c(I)c(O[C@@H]5O[C@@H](C)[C@H](O)[C@@H](OC)[C@H]5O)c(OC)c4OC)[C@@H](C)O3)[C@@H]2O)C[C@@H]1OC [N acetyl calicheamicin (lot A), N-acetyl calicheamicin γ 1]
- IC50 [1, 4]: 30.6 nM
- IC50 [1, 5]: 17.1 nM
- IC50 (293 T cells; [4]): 0.0409 nM
- IC50 (293 T cells; [5]): 0.052 nM
- IC50 [2, 4]: 0.0308 nM
- IC50 [2, 5]: 0.0693 nM
- derived IC50 values, range of activity ([2]; summary of Table 5): picomolar range

From patent US20180133337A1, “CALICHEAMICIN CONSTRUCTS AND METHODS OF USE” (priority 2015, published 2018)
